Data as given in patent US9932340B2, “Substituted indoles” (AbbVie Inc., priority 2014, dated 2018).

Molecular target: SUV420H1 enzyme (Homo sapiens, UniProt Q4FZB7)
Assay: TR-FRET SAH SUV420H1 enzyme inhibition assay
Type: biochemical
Settings: Histone Peptide H4(8-30)me1 and SAM, overnight at room temp, TR-FRET detection of SAH, read-out: TR-FRET SAH_SUV420H1 IC50
In short: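 SUV420H1 (90 nM) preincubated 30 min with compound (3-fold dilutions, 50 to 0.00075 μM), then H4(8-30)me1 peptide 5 nM and SAM 4 nM added, overnight at room temp. SAH product detected by TR-FRET with Tb anti-SAH antibody and Oregon Green-SAH in RIPA buffer, 4 h; IC50 from Hill fit, asymptotes fixed 0-100%.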

Sequence of SUV420H1 enzyme (Q4FZB7 whole entry): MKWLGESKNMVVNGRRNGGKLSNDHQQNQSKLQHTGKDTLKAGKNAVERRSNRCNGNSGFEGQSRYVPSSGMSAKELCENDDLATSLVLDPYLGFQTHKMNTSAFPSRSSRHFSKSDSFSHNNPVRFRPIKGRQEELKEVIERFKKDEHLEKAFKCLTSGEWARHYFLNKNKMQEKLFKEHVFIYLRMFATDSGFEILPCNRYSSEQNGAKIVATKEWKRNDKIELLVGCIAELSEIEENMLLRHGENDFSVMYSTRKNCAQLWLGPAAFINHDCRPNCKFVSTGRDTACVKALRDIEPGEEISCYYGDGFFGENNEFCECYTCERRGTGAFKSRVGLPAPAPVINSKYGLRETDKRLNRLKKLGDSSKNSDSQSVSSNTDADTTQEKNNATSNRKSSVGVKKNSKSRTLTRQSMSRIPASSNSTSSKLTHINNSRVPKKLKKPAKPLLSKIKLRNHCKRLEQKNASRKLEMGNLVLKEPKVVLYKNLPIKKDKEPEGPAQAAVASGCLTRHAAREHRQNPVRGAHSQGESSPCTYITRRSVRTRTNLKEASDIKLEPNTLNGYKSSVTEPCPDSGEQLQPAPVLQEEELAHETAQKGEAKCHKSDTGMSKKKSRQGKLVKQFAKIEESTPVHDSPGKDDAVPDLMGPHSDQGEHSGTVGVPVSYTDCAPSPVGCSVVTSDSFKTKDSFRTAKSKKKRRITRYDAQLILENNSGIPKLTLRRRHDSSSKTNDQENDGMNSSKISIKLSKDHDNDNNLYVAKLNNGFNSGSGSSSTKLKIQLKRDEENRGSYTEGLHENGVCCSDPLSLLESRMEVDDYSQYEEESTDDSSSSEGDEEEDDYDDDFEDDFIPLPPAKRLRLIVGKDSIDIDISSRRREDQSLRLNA

Row | SMILES | IC50
1 | Nc1ncnc2c1ncn2Cc1cc(Cl)cc2cc(CNC(=O)c3ccccc3F)[nH]c12 [Example 225, N-({7-[(6-amino-9H-purin-9-yl)methyl]-5-chloro-1H-indol-2-yl}methyl)-2-fluorobenzamide] | > 50000 nM
2 | Nc1ncnc2c1ncn2Cc1cc(Cl)cc2cc(CNC(=O)c3c(F)cccc3F)[nH]c12 [Example 228, N-({7-[(6-amino-9H-purin-9-yl)methyl]-5-chloro-1H-indol-2-yl}methyl)-2,6-difluorobenzamide] | 2420 nM
3 | Nc1ncnc2c1ncn2Cc1cc(Cl)cc2cc(CNC(=O)c3c(O)cccc3F)[nH]c12 [Example 229, N-({7-[(6-amino-9H-purin-9-yl)methyl]-5-chloro-1H-indol-2-yl}methyl)-2-fluoro-6-hydroxybenzamide] | > 50000 nM
4 | Nc1ncnc2c1ncn2Cc1cc(Cl)cc2cc(CNC(=O)Cc3ccccn3)[nH]c12 [Example 230, N-({7-[(6-amino-9H-purin-9-yl)methyl]-5-chloro-1H-indol-2-yl}methyl)-2-(pyridin-2-yl)acetamide] | 16700 nM
5 | Nc1ncnc2c1ncn2Cc1cc(Cl)cc2cc(CNC(=O)Cc3cccnc3)[nH]c12 [Example 231, N-({7-[(6-amino-9H-purin-9-yl)methyl]-5-chloro-1H-indol-2-yl}methyl)-2-(pyridin-3-yl)acetamide] | 2480 nM
6 | Nc1ncnc2c1ncn2Cc1cc(Cl)cc2cc(CNC(=O)Cc3ccncc3)[nH]c12 [Example 232, N-({7-[(6-amino-9H-purin-9-yl)methyl]-5-chloro-1H-indol-2-yl}methyl)-2-(pyridin-4-yl)acetamide] | 1980 nM

The next compounds have a lower IC50 than those just listed; values first:

Row | IC50 | SMILES
7 | 790 nM | Nc1ncnc2c1ncn2Cc1cc(Cl)cc2cc(CNC(=O)c3c(F)cccc3Cl)[nH]c12 [Example 227, N-({7-[(6-amino-9H-purin-9-yl)methyl]-5-chloro-1H-indol-2-yl}methyl)-2-chloro-6-fluorobenzamide]
8 | 275 nM | Nc1ncnc2c1ncn2Cc1cc(Cl)cc2cc(CNC(=O)c3c(F)cccc3Br)[nH]c12 [Example 226, N-({7-[(6-amino-9H-purin-9-yl)methyl]-5-chloro-1H-indol-2-yl}methyl)-2-bromo-6-fluorobenzamide]
9 | 236 nM | Cc1ncccc1C(=O)NCc1cc2cc(Cl)cc(Cn3cnc4c(N)ncnc43)c2[nH]1 [Example 233, N-({7-[(6-amino-9H-purin-9-yl)methyl]-5-chloro-1H-indol-2-yl}methyl)-2-methylpyridine-3-carboxamide]
10 | 60.6 nM | Cc1cc(C(=O)NCc2cc3cc(Cl)cc(Cn4cnc5c(N)ncnc54)c3[nH]2)c(C)nn1 [Example 234, N-({7-[(6-amino-9H-purin-9-yl)methyl]-5-chloro-1H-indol-2-yl}methyl)-3,6-dimethylpyridazine-4-carboxamide]
11 | 49.2 nM | Cc1cc(C(=O)NCc2cc3cc(C4=CCNCC4)cc(Cn4cnc5c(N)ncnc54)c3[nH]2)c(C)nn1 [Example 235, N-({7-[(6-amino-9H-purin-9-yl)methyl]-5-(1,2,3,6-tetrahydropyridin-4-yl)-1H-indol-2-yl}methyl)-3,6-dimethylpyridazine-4-carboxamide]
12 | 45.7 nM | CC(=O)N1CCC=C(c2cc(Cn3cnc4c(N)ncnc43)c3[nH]c(CNC(=O)c4cc(C)nnc4C)cc3c2)C1 [Example 238]
13 | 33.8 nM | Cc1cc(C(=O)NCc2cc3cc(C4=CCC(F)(F)CC4)cc(Cn4cnc5c(N)ncnc54)c3[nH]2)c(C)nn1 [Example 236, N-({7-[(6-amino-9H-purin-9-yl)methyl]-5-(4,4-difluorocyclohex-1-en-1-yl)-1H-indol-2-yl}methyl)-3,6-dimethylpyridazine-4-carboxamide]
14 | 28.8 nM | CC(=O)N1CC=C(c2cc(Cn3cnc4c(N)ncnc43)c3[nH]c(CNC(=O)c4cc(C)nnc4C)cc3c2)CC1 [Example 237, N-({5-(1-acetyl-1,2,3,6-tetrahydropyridin-4-yl)-7-[(6-amino-9H-purin-9-yl)methyl]-1H-indol-2-yl}methyl)-3,6-dimethylpyridazine-4-carboxamide]
